# “And” between values parts separate entries of the source, which are not always exact repeats. Equal values may be shown once.
# Columns and labels:
# [1] = system: Retinoic Acid Response Element (RARE) transcription factor pathway; test: Cignal RARE Reporter Assay (firefly luciferase) in HEK293 cells; format: cell-based; settings: for RARE-mediated firefly luciferase expression, % control / RARE-mediated firefly luciferase expression, Fold increase: 24 h, vs water; for Activity in RARE reporter assay: tested concentrations
# From the text: Objective: Retinoic Acid Receptor (RAR) controls gene transcription by binding to Retinoid Acid Response Elements (RAREs) in DNA. This process is modulated by all trans retinoic acid (ATRA)—a compound with well-established anti-aging skin benefits. […] Cignal RARE Reporter Assay® is designed to screen for such compounds using cell cultures. The objective of this project was to test 6 compounds (retinoic acid (ATRA), retinol, vitamin A palmitate, retinal, 10% w/w Near-1 in dimethylisosorbide, and 10% w/w retinoid ester in dimethylisosorbide) for the ability to activate RARE in this Cignal RARE Reporter Assay model.
# (§1) Materials & Methods: The experiments were performed using HEK293 cells (Sigma, St. Louis, Mo.; cat. #85120602) seeded at 50,000 per well in a 96 well black-wall tissue culture plate. Cells were transfected by mixing Cignal Reporter Assay firefly/renilla luciferase constructs (cat. #CCS-016L; Qiagen) with Attractene Transfection Reagent (Qiagen) in Opti-MEM supplemented with 1% MEM Non-essential amino acid solution without L-glutamine. After medium change test materials were added and their effect on RARE induction was quantified 24 h later with the Dual-Luciferase Reporter Assay System (cat. #E1960; Promega).
# [2] = system: Retinoid X receptor (RXR) transcription factor pathway; test: Cignal RXR Reporter Assay (firefly luciferase) in HEK293 cells; format: cell-based; settings: for RXR activation (% control): 24 h, vs water; for Activity in RXR reporter assay: tested concentrations
# From the text: Objective: Retinoid X receptors (RXRs) are one class of nuclear receptors through which retinoids mediate their biological effects. These receptors function as transcription factors by binding as heterodimers to specific sequences in the promoters of target genes. The protein encoded by this gene is a member of the steroid and thyroid hormone receptor superfamily of transcriptional regulators. One of its ligands is all trans retinoic acid (ATRA)—a compound with well-established anti-aging skin benefits. […] Cignal RXR Reporter Assay® is designed to screen for such compounds (retinoic acid (ATRA), retinal, 10% w/w Near-1 in dimethylisosorbide, and 10% w/w retinoid ester in dimethylisosorbide) using cell cultures. The objective of this project was to test four compounds for the ability to activate RXR in this Cignal RXR Reporter Assay model.
# as §1, with “The” for “Materials & Methods: The”, “Cignal RXR” for “Cignal”, “#CCS9044L;” for “#CCS-016L;”, “Lglutamine.” for “L-glutamine.”, “RXR” for “RARE”
# RXR is a mixture of an inducible retinoid X receptor—responsive firefly luciferase construct and a constitutively expressing Renilla construct, which acts as an internal control for normalizing transfection efficiencies and monitoring cell viability. Signal quantification was obtained with ThermoFisher Scientific Luminoskan Ascent Microplate Luminometer.
# [3] = system: mild to moderate lines and wrinkles, dullness and moderate dyschromia; test: Tolerability assessments (subjective and objective), IRS compared with 0.1% Adapalene, 12 weeks; format: in vivo, human (women); settings: IRS vs 0.1% Adapalene
# From the text: (§2) The objective of the study is to evaluate and compare the anti-aging efficacy and tolerability of 0.1% Adapalene compared to Intensive Renewing Serum over a 12-week period when used by women with mild to moderate lines and wrinkles, dullness and moderate dyschromia.
# Subjects reported to the facility at Baseline for Expert Grader assessments of various facial photoaging and irritation parameters, subjective assessments of facial irritation, digital imaging of the face, replica sampling of the crow's foot area, capacitance and firmness/elasticity measurements of the face and completed a self-assessment questionnaire. Subjects were randomized to receive 1 of 2 investigational products for treatment to the entire face for 12 weeks. Subjects returned to the lab at Week 2 and Week 4 to have Expert Grader assessments, digital imaging and self-assessments repeated. At Weeks 8 and 12, subjects returned for Expert Grader assessments, digital imaging, replica sampling, capacitance and firmness/elasticity measurements and self-assessments.
# (§3) Expert Grader Assessments: In addition to screening and selecting the final panel, an Expert Grader assessed the face of each subject for various irritation and efficacy parameters at Baseline and after 2, 4, 8 and 12 weeks of treatment. The scale that was used for each assessment parameter (unless otherwise indicated) is: 0=none, 1-3=mild, 4-5=moderate, […].
# Irritation parameters: The Expert Grader assessed the face of each subject at each time point for the following irritation parameters using a 0-9 scale: Erythema, Dryness, Scaling, and Edema. Using a 0-9 scale, subjects were asked to rate their amount of: Burning, Stinging, Itching, Tightness, and Dryness.
# Treatment Procedures: approximately 20-25 subjects assigned to each product per randomization. After the Baseline assessments and measurements had been completed, the subjects reported to the Treatment Technician, who dispensed a new container of their assigned product to the subject and instructed the subject to apply the product according to the Sponsor's instructions below:
# Product C: Morning instructions: Follow your regular morning skincare routine. Evening instructions: Product C should be used once daily in the evening, after your regular cleanser. Open a capsule by twisting off the tail end of one capsule. Apply the serum over your entire face, including under the eyes and crow's feet. […] Avoid getting into eyes, In case of inadvertent eye contact, rinse eyes with plenty of water to remove product from eyes. […] Use one capsule per night. Follow with the rest of your evening skin care Regimen. Note: make sure that no water gets into the jar and that your hands are dry before use. Please ensure the jar is tightly closed after each use.
# Product N: Morning instructions: Follow your regular morning skincare routine. Evening instructions: Product N should be used once daily in the evening, after your regular cleanser. Clean the skin gently with your regular cleanser and pat dry before applying Product N. Cover the entire face, including under the eyes and crow's feet, with a thin layer. […] Avoid product contact with eyes, lips and mouth. If contact occurs, immediately flush the area with water. […] Wash hands after use. […] Follow with the rest of your evening skin care Regimen.
# [4] = system: mild to moderate lines and wrinkles, dullness and moderate dyschromia; test: Expert Grader clinical grading assessment of efficacy, IRS compared with 0.1% Adapalene; format: in vivo, human (women)
# From the text: as §2, §3
# (§4) Efficacy parameters: The assessments of efficacy were made using methods that would provide the Sponsor the most information on changes in the subject's skin over time. The methods that the Expert Grader used to assess efficacy are as follows: 1. Live Grading: Absolute scores from viewing the subject's face were assigned using a 0-9 scale. Live grades were conducted at each time point. 2. Baseline Aided Grading: Absolute scores from viewing the subject's face were assigned using a 0-9 scale at the Baseline visit and the Expert Grader used the subject's Baseline photo for reference at follow-up visits. Baseline aided grading was conducted at each time point other than at Baseline. 3. Comparison Grading from Photos: Comparison grading was performed after the conclusion of the study. The Expert Grader compared the photos from each time point to Baseline for improvement/worsening using the below scale: −4=Marked worsening, −3=Moderate worsening, −2=Mild worsening, −1=Barely perceptible worsening, −0.1=Forced choice worsening, 0=No change, 0.1=Forced choice improvement, 1=Barely perceptible improvement, 2=Mild improvement, 3=Moderate improvement, and 4=Marked improvement.
# The following efficacy parameters were assessed by the Expert Grader along with the assessment method(s) are listed: 1. Skin Texture (softness/smoothness) [tactile]: Live grading, 2. Skin Texture [visual]: Live grading/Baseline aided, 3. Fine Lines (eye area including crow's feet): Live grading/Baseline aided/Comparison scores from photos, 4. Wrinkles (eye area, including crows feet): Live grading, Baseline aided, Comparison scores from photos, 5. Pore appearance: Comparison scores from photos, 6. Firmness: Live grading, 7. Sagging (nasolabial fold area): Comparison scores from photos, 8. Discrete hyperpigmentation: Comparison scores from photos, 9. Mottled hyperpigmentation: Comparison scores from photos, 10. Skin tone evenness: Comparison scores from photos, 11. Radiance/luminosity/glow (defined as Dull to luminous/shiny): Live grading, 12. Sallowness (sallow to rosy): Live grading/Baseline aided, 13. Overall healthy skin appearance: Comparison scores from photos, 14. Overall photodamage: Live grading/Baseline aided, 15. Pinch recoil (under the eye): Live grading (For this assessment, a 0-9 score will not be assigned. Per the Sponsor, the evaluator will pinch the subject's skin at the designated site using the thumb and forefinger and hold the skin in place for approximately 2 seconds. A stopwatch will be started upon release and the time required for the subject's skin to return to its original conformation will be measured to the nearest tenth of a second. A decrease in pinch recoil times over time indicates an improvement in skin “bounce-back” or elasticity/resiliency.). […]
# [5] = system: mild to moderate lines and wrinkles, dullness and moderate dyschromia; test: Comparison grading from photos, IRS compared with 0.1% Adapalene; format: in vivo, human (women)
# Method: as §4
# The following efficacy parameters were assessed by the Expert Grader along with the assessment method(s) are listed: 1. Skin Texture (softness/smoothness) [tactile]: Live grading, 2. Skin Texture [visual]: Live grading/Baseline aided, 3. Fine Lines (eye area including crow's feet): Live grading/Baseline aided/Comparison scores from photos, 4. […] Pinch recoil (under the eye): Live grading (For this assessment, a 0-9 score will not be assigned. Per the Sponsor, the evaluator will pinch the subject's skin at the designated site using the thumb and forefinger and hold the skin in place for approximately 2 seconds. A stopwatch will be started upon release and the time required for the subject's skin to return to its original conformation will be measured to the nearest tenth of a second. A decrease in pinch recoil times over time indicates an improvement in skin “bounce-back” or elasticity/resiliency.). […]
SMILES,"RARE-mediated firefly luciferase expression, % control ([1]; 1 μM)","RARE-mediated firefly luciferase expression, Fold increase ([1]; 1 μM)","RARE-mediated firefly luciferase expression, % control ([1]; 5 μM)","RARE-mediated firefly luciferase expression, Fold increase ([1]; 5 μM)",RXR activation (% control) ([2]; 1 μM),RXR activation (% control) ([2]; 5 μM),Activity in RXR reporter assay [2],"RARE-mediated firefly luciferase expression, % control ([1]; 10 μM)","RARE-mediated firefly luciferase expression, Fold increase ([1]; 10 μM)",Activity in RARE reporter assay [1],other results
"CC1=C(/C=C/C(C)=C/C=C/C(C)=C/C(=O)O)C(C)(C)CCC1 [ATRA, all trans retinoic acid]",1054 % control and 1284 % control,10.5 and 12.8,973 % control,9.7,340,437,best performers,,,,"RARE-mediated firefly luciferase expression, % control ([1]; 0.2 μM): 775 % control and 1099 % control; RARE-mediated firefly luciferase expression, Fold increase ([1]; 0.2 μM): 7.8 and 11.0; RXR activation (% control) ([2]; 0.2 μM): 201 % control"
"CC1=C(/C=C/C(C)=C/C=C/C(C)=C/C=O)C(C)(C)CCC1 [Retinal, retinaldehyde]",613 % control,6.1,1005 % control,10.0,131,181,best performers,946 % control,9.5,best performer,times less effective than retinoic acid in modulating the RARE pathway ([1]; at 1 uM): 1.7 times; effectiveness vs retinoic acid in modulating the RARE pathway ([1]; at 5 uM): equivalent to retinoic acid; RXR activation (% control) ([2]; 10 μM): 279 % control; times less effective in modulating RXR pathway in comparison to retinoic acid ([2]; at 5 uM): 2.4 times
"CCCCCCCCCCCCCCCC(=O)OC/C=C(C)/C=C/C=C(C)/C=C/C1=C(C)CCCC1(C)C [Vit A Palmitate, vitamin A palmitate]",75 % control and 76 % control,0.7 and 0.8,77 % control and 73 % control,0.8 and 0.7,,,,86 % control and 67 % control,0.9 and 0.7,All test materials except Vit-A-Pal were active,
"COc1ccc(-c2ccc3cc(C(=O)O)ccc3c2)cc1C12CC3CC(CC(C3)C1)C2 [Adapalene, adapalene]",,,,,,,,,,,"Burning (subjective) [3]: somewhat greater degree of perceived burning; Dryness (objective, clinical) [3]: greater degree of tactile dryness; Erythema (objective, clinical) [3]: somewhat greater degree of erythema; Scaling (objective, clinical) [3]: greater degree of visual scaling; Stinging (subjective) [3]: somewhat greater degree of perceived stinging; Dryness/Tightness (subjective) ([3]; most notably at Week 4): slightly greater perception of dryness/tightness; Elasticity/Resiliency, clinical grading ([4]; by weeks 8 & 12): No improvement; Skin Texture (Visual), clinical grading ([4]; by weeks 8 & 12): slight improvement; Fine Lines, clinical grading ([4]; comparable first 4 weeks, mild improvements by week 8, course to week 12): remains constant; Radiance/Luminosity/Glow, clinical grading ([4]; over 12 weeks): Mild improvement persists through week 8; Skin Texture (Tactile), clinical grading ([4]; over 12 weeks): By week 12, no improvement; Photo comparison mean scores (overall) ([5]; IRS vs 0.1% Adapalene): mean scores slightly favored Adapalene; Discrete Hyperpigmentation, photo comparison ([5]; over 12 weeks): slightly better results; Mottled Hyperpigmentation, photo comparison ([5]; over 12 weeks): progressive & slightly better result"
"CC1=C(/C=C/C(C)=C/C=C/C(C)=C/CO)C(C)(C)CCC1 [Retinol, retinol]",138 % control and 150 % control,1.4 and 1.5,268 % control and 253 % control,2.7 and 2.5,,,,278 % control and 294 % control,2.8 and 2.9,,

# Source: patent US11318077B2, “Retinaldehyde containing compositions and methods of use” (RODAN & FIELDS, LLC, priority 2017, dated 2022)
